Reference: patent US9951060B2, “2-acylaminothiazole derivative or salt thereof” (ASTELLAS PHARMA INC., priority 2014, dated 2018)
Like-named read-outs stand apart in the source and are kept apart here.

Experiments:
[1] = molecular target: T1, human c-Mpl-introduced Ba/F3 cell (Homo sapiens, UniProt P40238); settings: disclosed in Table 1 of Patent Document 1 (WO 2005/007651); cited from earlier work
T1 construct: expressed in transfected cells
T1 sequence (P40238 26-635): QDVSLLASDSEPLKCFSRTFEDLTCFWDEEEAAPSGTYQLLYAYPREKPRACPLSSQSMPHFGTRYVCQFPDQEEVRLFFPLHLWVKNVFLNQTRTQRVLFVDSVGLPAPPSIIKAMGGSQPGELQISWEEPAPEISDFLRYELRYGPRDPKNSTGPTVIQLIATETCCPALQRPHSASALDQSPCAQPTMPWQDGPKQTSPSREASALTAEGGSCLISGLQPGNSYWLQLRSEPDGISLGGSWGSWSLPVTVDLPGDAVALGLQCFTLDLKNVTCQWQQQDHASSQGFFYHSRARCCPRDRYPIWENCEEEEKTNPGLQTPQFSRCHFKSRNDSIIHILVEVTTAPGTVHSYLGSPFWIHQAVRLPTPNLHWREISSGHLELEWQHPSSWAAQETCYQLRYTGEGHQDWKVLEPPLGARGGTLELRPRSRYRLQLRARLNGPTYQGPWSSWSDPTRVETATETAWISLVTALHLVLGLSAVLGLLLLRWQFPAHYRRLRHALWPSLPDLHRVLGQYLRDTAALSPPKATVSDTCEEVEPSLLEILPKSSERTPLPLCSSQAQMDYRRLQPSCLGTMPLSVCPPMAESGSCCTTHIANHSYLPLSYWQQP

[2] = molecular target: T1, human c-Mpl-introduced Ba/F3 cell; experiment: Test Example 2: human c-Mpl-introduced Ba/F3 cell proliferative activity; format: cell-based; settings: concentration exhibiting 30% proliferation; 100% = positive control (Example 315 of Patent Document 1) at 1 μM
Experimental: Test Example 2: Evaluation of Human c-Mpl-Introduced Ba/F3 Cell Proliferative Activity
The human c-Mpl-introduced Ba/F3 cell proliferation action was measured by the following method.
As a positive control, 1-(5-{[4-(4-chlorothiophen-2-yl)-5-{[(2R)-2-methylpyrrolidin-1-yl]methyl}-1,3-thiazol-2-yl]carbamoyl}-3-fluoropyridin-2-yl)piperidine-4-carboxylic acid hydrochloride disclosed as Example 315 in Patent Document 1, represented by the formula (A1) above, was used. Further, it is known that the compound has a good human c-Mpl-introduced Ba/F3 cell proliferative activity as disclosed in Table 1 in Patent Document 1.
a) Construction of Vector Expressing Human c-Mpl Receptor
A human c-Mpl receptor gene (GenBank Accession No.: M90102.1) was transfected into an expression vector pEF-BOS (Nucleic Acids Research, 18: pp 5322 (1990)).
b) Construction of Cell Stably Expressing Human c-Mpl Receptor
A vector expressing a human c-Mpl receptor was introduced into a Ba/F3 cell (RIKEN BRC: RCB0805). For the introduction, an electroporation method was used. pEF-BOS-c-mpl (10 μg), pSV2bsr (1 μg, Kaken Pharmaceutical Co., Ltd.) and 1×10^7 of Ba/F3 cells were put into cuvettes with a gap width of 0.4 cm and electroporated under a condition of 1.5 kV (25 μF) in a Gene Pulser (registered trademark) (BioRad). The cells were incubated in an RPMI-1640 medium supplemented with a 0.5% WEHI conditioned medium (BD Biosciences) and 10% fetal bovine serum for 3 days, and thereafter, and the cells were incubated for 30 days in an RPMI-1640 medium, to which 10 μg/mL blasticidin had been further added, thereby acquiring a drug-resistant clone.
c) Measurement of Cell Proliferative Activity
The cells obtained in b) above were dispensed into an RPMI-1640 medium supplemented with a 0.5% WEHI conditioned medium and 10% fetal bovine serum, and used. The day before the experiment, the test substances (final concentration of 100 nM to 10 μM) which had been dissolved in a medium for assay (an RPMI-1640 medium supplemented with 10% fetal bovine serum) were added to a 384-well plate (Model No. 781185, Greiner bio-one). The cells after the medium had been replaced with the medium for assay were dispensed to a 384-well plate to which the test substance had been added, to 1×10^4 cells/well, and incubated overnight at 37° C. and 5% CO2. On the experiment day, a solution of a Cell counting kit (Dojindo Laboratories) was added to each well of the 384-well plate, and the cells were incubated for about 5 hours at 37° C. and 5% CO2. Thereafter, the absorbance (an absorbance wavelength of 450 nm) of each well was measured using Safire^2 (registered trademark) (TECAN), and used as an index for the number of cells. Further, as a negative control, a well to which the test substances had not been added was prepared.
By taking the absorbance of the well to which the test substance had been not added as 0% and taking the absorbance in a case where the positive control had been added to a final concentration of 1 μM as 100%, a cell proliferation rate (%) was calculated from the absorbance of the well to which the test substance had been added.

[3] = molecular target: T2, human muscarinic M3 receptor (Homo sapiens, UniProt P20309)
T2 sequence (P20309 whole entry): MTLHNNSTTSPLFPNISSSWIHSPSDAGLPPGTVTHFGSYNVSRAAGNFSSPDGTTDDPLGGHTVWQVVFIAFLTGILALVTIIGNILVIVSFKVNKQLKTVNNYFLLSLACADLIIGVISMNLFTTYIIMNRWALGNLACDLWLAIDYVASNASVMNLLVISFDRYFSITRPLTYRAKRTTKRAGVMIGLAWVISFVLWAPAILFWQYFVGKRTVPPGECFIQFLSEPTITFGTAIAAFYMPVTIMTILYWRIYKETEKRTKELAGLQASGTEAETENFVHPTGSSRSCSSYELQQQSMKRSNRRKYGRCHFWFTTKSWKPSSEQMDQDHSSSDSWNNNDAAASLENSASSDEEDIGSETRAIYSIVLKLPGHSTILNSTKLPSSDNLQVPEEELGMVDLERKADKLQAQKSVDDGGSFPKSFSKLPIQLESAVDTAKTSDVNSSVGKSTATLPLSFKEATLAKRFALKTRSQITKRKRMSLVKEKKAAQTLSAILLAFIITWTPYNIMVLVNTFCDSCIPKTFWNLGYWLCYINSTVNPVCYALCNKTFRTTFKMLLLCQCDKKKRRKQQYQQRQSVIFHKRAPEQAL
Source text: (§1) Test Example 1: Evaluation of Muscarinic M3 Receptor Positive Allosteric Modulator Activity
(§2) a) Construction of Vector Expressing Human Muscarinic M3 Receptor
(§3) A human muscarinic M3 receptor gene (GenBank Accession No.: NM_000740.2) was introduced into an expression vector pcDNA3.1™ (Life Technologies).
(§4) b) Construction of Cells Stably Expressing Human Muscarinic M3 Receptor
(§5) A vector expressing a human muscarinic M3 receptor was introduced into a CHO—K1 cell (ATCC No.: CCL-61). The introduction was carried out according to the attached instructions, using a transfection reagent, Lipofectoamine (registered trademark) 2000 Reagent (Life Technologies). The cells were incubated in an alpha Modified Eagle Minimum Essential Medium (α-MEM) including 2 mM glutamine, 10% fetal bovine serum, and 2.0 mg/mL Geneticin (registered trademark) (Life Technologies) for 4 weeks to acquire a drug-resistant clone.
(§6) c) Measurement of Intracellular Ca^2+ Concentration
(§7) The cells obtained in b) above were suspended in an α-MEM including 2 mM glutamine, 10% fetal bovine serum, and 0.2 mg/mL Geneticin (registered trademark) to the amount from 1.2 to 1.5×10^4 cells/well the day before the experiment, dispensed into a 384-well plate (Model No. 355962, BD Biosciences), and incubated overnight at 37° C. and 5% CO2. The medium was replaced with a loading buffer (an assay buffer (Hank's balanced salt solution (HBSS), 1 g/L BSA, 20 mM HEPES (pH 7.5), and 2.5 mM probenecid), including 3.1 μM Fluo 4-AM (Dojindo Laboratories) and incubated for about 2 hours at room temperature. Thereafter, the cells were washed with a plate washer ELx405™ (BIO-TEK Instrument, Inc.) set with the assay buffer, and set in an intracellular Ca^2+ concentration measuring system (FLIPR^tetra (registered trademark), Molecular Device Co.). The test substances (final concentration of 1 μM or 10 μM) and carbachol (Sigma, final concentration of 0.0024 nM to 10 μM) which had each been dissolved in the assay buffer in advance were set in a FLIPR^tetra (registered trademark). The test substances were added to the cells in the device and after about 5 minutes, carbachol was added to the cells. An increase rate of the intracellular Ca^2+ concentration by carbachol was measured (excitement wavelength of 470 nm to 495 nm and a fluorescence wavelength of 515 nm to 575 nm).
(§8) For the muscarinic M3 receptor-positive allosteric modulator activity, a shift toward a lower concentration side of a carbachol concentration-response curve by the test substance was used as an index. […] For example, when the EC50 value of carbachol in the absence of the test substance was 0.1 μM and the EC50 value of carbachol in the presence of the test substance was 0.01 μM, the value of the muscarinic M3 receptor-positive allosteric modulator activity becomes 10, showing that the test substance causes a 10-fold shift in the EC50 value toward to the low concentration side.

[4] = molecular target: T2, human muscarinic M3 receptor; experiment: Test Example 1: muscarinic M3 receptor positive allosteric modulator activity (shift of carbachol concentration-response curve, intracellular Ca2+, FLIPR); settings: carbachol EC50 without / with test substance, CHO-K1 cells expressing human M3
Source text: as §1, §2, §3, §4, §5, §6, §7, §8

| human c-Mpl-introduced Ba/F3 cell proliferative activity EC30 [2] [µM] | muscarinic M3 receptor-positive allosteric modulator activity, 1 μM (-fold shift) [3] | muscarinic M3 receptor-positive allosteric modulator activity, 10 μM (-fold shift) [3] | muscarinic M3 receptor-positive allosteric modulator activity, 1 μM (-fold shift) ([4]; test substance 1 μM) | muscarinic M3 receptor-positive allosteric modulator activity, 10 μM (-fold shift) ([4]; test substance 10 μM) | SMILES | EC30 value of c-Mpl-introduced Ba/F3 cell proliferation action [1] [µM] |
| --- | --- | --- | --- | --- | --- | --- |
|  |  |  |  |  | C[C@@H]1CCCN1Cc1sc(NC(=O)c2cnc(N3CCC(C(=O)O)CC3)c(F)c2)nc1-c1cc(Cl)cs1.Cl [Example 315, 1-(5-{[4-(4-chlorothiophen-2-yl)-5-{[(2R)-2-methylpyrrolidin-1-yl]methyl}-1,3-thiazol-2-yl]carbamoyl}-3-fluoropyridin-2-yl)piperidine-4-carboxylic acid hydrochloride] | 0.0032 |
| >10 | 19 -fold shift | 139 -fold shift |  |  | COc1c(F)cc(-c2nc(NC(=O)c3cnc(N4CCN(CCC(=O)O)C[C@@H]4C)cn3)sc2CN2CCC[C@H]2C)cc1C(F)(F)F [Example 91] |  |
| >10 | 27 -fold shift | 177 -fold shift |  |  | CC[C@@H]1CCCN1Cc1sc(NC(=O)c2cnc(N3CCN(CCC(=O)O)CC3)cn2)nc1-c1cc(C2CC2)cc(C(F)(F)F)c1 [Example 69] |  |
| 5 | 203 -fold shift | 627 -fold shift |  |  | C[C@@H]1CC[C@@H](C)N1Cc1sc(NC(=O)c2cnc(N3CCN(CCC(=O)O)CC3)cn2)nc1-c1cc(C(F)(F)F)cs1 [Example 111] |  |
| >10 | 30 -fold shift | 203 -fold shift |  |  | COc1c(F)cc(-c2nc(NC(=O)c3cnc(N4CCN(CCC(=O)O)C[C@H]4C)cn3)sc2CN2CCC[C@H]2C)cc1C(F)(F)F [Example 92] |  |
| >3 |  |  | 25 -fold shift | 200 -fold shift | Cc1cc(-c2nc(NC(=O)c3cnc(N4CCN(CCC(=O)[O-])CC4)cn3)sc2CN2CCCC[C@H]2C)cc(C(F)(F)F)c1.[Na+] [Example 4, sodium 3-(4-{5-[(5-{[(2R)-2-methylpiperidin-1-yl]methyl}-4-[3-methyl-5-(trifluoromethyl)phenyl]-1,3-thiazol-2-yl)carbamoyl]pyrazin-2-yl}piperazin-1-yl)propanoate] |  |
| >10 | 37 -fold shift | 195 -fold shift |  |  | CC[C@@H]1CCCN1Cc1sc(NC(=O)c2cnc(N3CCN(CC(=O)O)CC3)cn2)nc1-c1cc(F)cc(C(F)(F)F)c1 [Example 62] |  |
| >10 | 56 -fold shift | 169 -fold shift |  |  | CN(Cc1sc(NC(=O)c2cnc(N3CCN(CCC(=O)O)CC3)cn2)nc1-c1cc(F)cc(C(F)(F)F)c1)CC1CC1 [Example 108] |  |
